This is an account of results in PubChem BioAssay (NCI).

Some test systems named below: A549 NSCLC; BT-549 breast; EKVX NSCLC; HOP-92 NSCLC; MDA-MB-231 breast; NCI-H522 lung; NCI/ADR-RES ovarian; OVCAR-3 ovarian; OVCAR-8 ovarian; PC-3 prostate; SF-295 CNS; SK-MEL-28 melanoma; SN12C renal.
Holding throughout (test): growth of human tumour cells (NCI), 48 h

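All cell lines were grown in 96-well plates and treated with compound for 48 hours. TGI: total growth inhibition.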

With `NS(=O)(=O)c1ccc(N=Nc2ccc(O)c(O)c2)cc1`, the TGI in the assay on A549 NSCLC is 48.7 µM; in the assay with BT-549 breast, 14.4 µM; in the assay on EKVX NSCLC it was more than 100 µM; in the assay on HOP-92 NSCLC, 69.3 µM; with MDA-MB-231 breast, 38.8 µM; with NCI-H522 lung, 3.1 µM. Moreover, the TGI in the assay on NCI/ADR-RES ovarian is 73.2 µM; in the assay with OVCAR-3 ovarian it was more than 100 µM; with OVCAR-8 ovarian, 21.5 µM; with PC-3 prostate, more than 100 µM; in the assay with SF-295 CNS it was more than 100 µM; in the assay on SK-MEL-28 melanoma it was 37.2 µM. The same compound had a TGI with SN12C renal of 44.9 µM.

`CC1(C)CC(=O)C(CC2C(=O)c3ccccc3C2=O)C(=O)C1C(=O)C(=O)Nc1cccc2ccc(O)cc12` (centres undefined): the TGI in the assay with A549 NSCLC, in the assay on BT-549 breast, in the assay with EKVX NSCLC, with HOP-92 NSCLC, with MDA-MB-231 breast and with NCI-H522 lung was more than 100 µM in each case. The TGI in the assay with NCI/ADR-RES ovarian, with OVCAR-3 ovarian, with OVCAR-8 ovarian, in the assay on PC-3 prostate, in the assay with SF-295 CNS and in the assay with SK-MEL-28 melanoma was more than 100 µM throughout. In addition, the TGI with SN12C renal was more than 100 µM.

In the case of `O=[N+]([O-])c1ccc(OP(=O)(O)OCC2OC(CP(=O)(O)O)C(O)C2O)cc1` (centres undefined), the TGI with A549 NSCLC, with BT-549 breast, with EKVX NSCLC, in the assay on HOP-92 NSCLC, with MDA-MB-231 breast and in the assay with NCI-H522 lung was more than 100 µM in each case. For the same compound, the TGI in the assay on NCI/ADR-RES ovarian, in the assay with OVCAR-3 ovarian, with OVCAR-8 ovarian, with PC-3 prostate, with SF-295 CNS and with SK-MEL-28 melanoma was more than 100 µM throughout. Moreover, the TGI in the assay with SN12C renal was more than 100 µM.

In the case of `Nc1cccc(/C=C/CN2CCN(CCOC(c3ccccc3)c3ccccc3)CC2)c1`, the TGI in the assay with A549 NSCLC was 29.7 µM; in the assay with BT-549 breast it was 29.9 µM; in the assay with EKVX NSCLC it was 32 µM; in the assay with HOP-92 NSCLC, 25.4 µM; in the assay on MDA-MB-231 breast it was 30.3 µM; in the assay with NCI-H522 lung, 27.7 µM. Also, the TGI amounted to 29.5 µM with NCI/ADR-RES ovarian; 29.1 µM in the assay on OVCAR-3 ovarian; 30.1 µM with OVCAR-8 ovarian; 30 µM with PC-3 prostate; 31.4 µM with SF-295 CNS; 27.1 µM in the assay on SK-MEL-28 melanoma. The TGI in the assay with SN12C renal amounted to 36 µM.

For `Cc1ccc(O)c(-c2cc(-c3ccccc3)nc(/N=C\c3ccccc3)n2)c1`, the TGI in the assay with A549 NSCLC is more than 100 µM; with BT-549 breast, 19.2 µM; in the assay on EKVX NSCLC, more than 100 µM; with HOP-92 NSCLC, more than 100 µM; with MDA-MB-231 breast it was more than 100 µM; in the assay with NCI-H522 lung it was more than 100 µM. For the same compound, the TGI with NCI/ADR-RES ovarian is 85.6 µM; in the assay with OVCAR-3 ovarian, more than 100 µM; in the assay with OVCAR-8 ovarian, more than 100 µM; with PC-3 prostate, more than 100 µM; in the assay on SF-295 CNS it was more than 100 µM; in the assay with SK-MEL-28 melanoma, more than 100 µM. This compound gave a TGI in the assay with SN12C renal of more than 100 µM.

`Nc1nc(Cl)cc(NCC2(CO)CC(c3ccccc3)C2)n1` (centres undefined): the TGI in the assay with A549 NSCLC is more than 100 µM; with BT-549 breast it was more than 100 µM; in the assay with EKVX NSCLC, 84.5 µM; in the assay with HOP-92 NSCLC, more than 100 µM; with MDA-MB-231 breast, more than 100 µM; with NCI-H522 lung, more than 100 µM. The TGI in the assay on NCI/ADR-RES ovarian is 92.2 µM; with OVCAR-3 ovarian it was more than 100 µM; with OVCAR-8 ovarian it was more than 100 µM; with PC-3 prostate, more than 100 µM; in the assay with SF-295 CNS, more than 100 µM; in the assay with SK-MEL-28 melanoma it was more than 100 µM. For the same compound, the TGI with SN12C renal was more than 100 µM.

In the case of `COC(=O)c1ccc(-n2c(C)nc(=O)c(-c3ccccc3)c2C)cc1`, the TGI in the assay on A549 NSCLC, with BT-549 breast, with EKVX NSCLC, with HOP-92 NSCLC, in the assay on MDA-MB-231 breast and in the assay with NCI-H522 lung was more than 100 µM throughout. The TGI with NCI/ADR-RES ovarian, with OVCAR-3 ovarian, in the assay with OVCAR-8 ovarian, with PC-3 prostate, with SF-295 CNS and in the assay on SK-MEL-28 melanoma was more than 100 µM each time. In addition, the TGI with SN12C renal was more than 100 µM.

`O=C(Nc1sccc1S(=O)(=O)c1ccc(Cl)cc1)c1ccc(Cl)cc1Cl`: the TGI with A549 NSCLC, with BT-549 breast, in the assay with EKVX NSCLC, with HOP-92 NSCLC, in the assay with MDA-MB-231 breast and in the assay on NCI-H522 lung was more than 100 µM throughout. For the same compound, the TGI with NCI/ADR-RES ovarian, in the assay on OVCAR-3 ovarian, in the assay with OVCAR-8 ovarian, in the assay with PC-3 prostate, with SF-295 CNS and in the assay with SK-MEL-28 melanoma was more than 100 µM each time. Moreover, the TGI with SN12C renal was more than 100 µM.
